In ChEMBL document CHEMBL1201862, “PubChem BioAssay data set” (2004):
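Assay format: 96-well plates, 48-hour exposure. Here, GI50 denotes the concentration required for 50% inhibition of growth.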 Activity calls are given as the source filed them. No stated cut-off is given here; in the data, active = GI50 up to about 1.1 µM and inactive = higher.

How the values were obtained:
Test in all cases: NCI-60 cell line screen, 48 h
[1] = system: OVCAR-5
[2] = system: T47D
[3] = system: HCT-116
[4] = system: UACC-257
[5] = system: HOP-62
[6] = system: UACC-62
[7] = system: MCF7
[8] = system: SR
[9] = system: 786-0
[10] = system: NCI-H226
[11] = system: CCRF-CEM
[12] = system: SF-295
[13] = system: DU-145
[14] = system: IGROV-1
[15] = system: SNB-19
[16] = system: SK-MEL-2
[17] = system: EKVX
[18] = system: UO-31
[19] = system: MOLT-4
[20] = system: Hs-578T
[21] = system: A498
[22] = system: RPMI-8226
[23] = system: OVCAR-4
[24] = system: SN12C
[25] = system: NCI-H460
[26] = system: HOP-92
[27] = system: KM12
[28] = system: SK-MEL-5
[29] = system: OVCAR-8
[30] = system: CAKI-1
[31] = system: SF-539
[32] = system: MDA-MB-435
[33] = system: OVCAR-3
[34] = system: NCI-H23
[35] = system: SK-MEL-28
[36] = system: SW-620
[37] = system: MDA-MB-231
[38] = system: COLO 205
[39] = system: LOX IMVI
[40] = system: HCT-15
[41] = system: SNB-75
[42] = system: TK-10
[43] = system: ACHN
[44] = system: PC-3
[45] = system: U-251
[46] = system: RXF 393
[47] = system: M14
[48] = system: NCI-H522
[49] = system: Malme-3M
[50] = system: HT-29
[51] = system: MDA-N
[52] = system: A549
[53] = system: HCC 2998
[54] = system: SF-268
[55] = system: NCI/ADR-RES
[56] = system: K562
[57] = system: SK-OV-3
[58] = system: HL-60

Measured: GI50

CC(C)NCC(O)c1ccc(OCc2ccccc2)c(OCc2ccccc2)c1-c1ccccc1 (stereo not drawn)
inactive: [1] 1.77 µM | [2] 2.74 µM | [3] 1.79 µM | [4] 1.88 µM | [5] 1.79 µM | [6] 1.41 µM | [7] 1.79 µM | [8] 2.68 µM | [9] 1.71 µM | [10] 2.33 µM | [11] 1.95 µM | [12] 2.05 µM | [13] 1.75 µM | [14] 1.41 µM | [15] 2.6 µM | [16] 2.7 µM | [17] 14.3 µM | [18] 2.52 µM | [19] 2.05 µM | [20] 1.34 µM | [21] 2.49 µM | [22] 2.51 µM | [23] 1.89 µM | [24] 1.75 µM | [25] 1.79 µM | [26] 2.62 µM | [27] 2.16 µM | [28] 1.25 µM | [29] 1.73 µM | [30] 1.76 µM | [31] 1.58 µM | [32] 1.79 µM | [33] 1.8 µM | [34] 1.97 µM | [35] 1.76 µM | [36] 1.63 µM | [37] 1.69 µM | [38] 1.7 µM | [39] 3.07 µM | [41] 1.28 µM | [42] 2.35 µM | [43] 1.68 µM | [44] 1.53 µM | [45] 1.67 µM | [46] 3 µM | [47] 1.93 µM | [48] 1.65 µM | [49] 1.77 µM | [50] 1.66 µM | [51] 1.69 µM | [52] 1.72 µM | [53] 1.69 µM | [54] 2.93 µM | [55] 2 µM | [56] 1.63 µM | [57] 1.67 µM
1.82 µM: [40]

CCCCCCCCCCCCCCCCCCOCC(CO[PH](=O)O)OCCCCCCCCCCCCCCCCCC (stereo not drawn)
inactive: [1] > 50 µM | [2] > 50 µM | [3] > 50 µM | [4] > 50 µM | [7] > 50 µM | [8] > 50 µM | [9] > 50 µM | [10] > 50 µM | [58] > 50 µM | [13] > 50 µM | [14] > 50 µM | [15] > 50 µM | [16] > 50 µM | [17] > 50 µM | [19] > 50 µM | [20] > 50 µM | [21] > 50 µM | [22] > 50 µM | [23] > 50 µM | [24] > 50 µM | [25] > 50 µM | [26] > 50 µM | [27] > 50 µM | [28] > 50 µM | [29] > 50 µM | [30] > 50 µM | [31] > 50 µM | [32] > 50 µM | [33] > 50 µM | [35] > 50 µM | [36] > 50 µM | [37] > 50 µM | [38] > 50 µM | [39] > 50 µM | [41] > 50 µM | [42] > 50 µM | [44] > 50 µM | [45] > 50 µM | [46] > 50 µM | [47] > 50 µM | [48] > 50 µM | [50] > 50 µM | [51] > 50 µM | [52] > 50 µM | [53] > 50 µM | [54] > 50 µM | [55] > 50 µM | [56] > 50 µM | [57] > 50 µM
> 50 µM: [40]

C(#C[C@@]12CCC[C@@H]1NCO2)c1ccc2c(c1)OCO2
inactive: [1] > 100 µM | [2] 58.2 µM | [4] 44.2 µM | [5] 87.3 µM | [6] 78.3 µM | [7] 57.9 µM | [8] 36.8 µM | [9] 43.7 µM | [10] > 100 µM | [11] 42.6 µM | [58] 24 µM | [12] 50.6 µM | [13] > 100 µM | [14] 45.9 µM | [15] > 100 µM | [16] > 100 µM | [17] > 100 µM | [18] 30.3 µM | [19] 22.2 µM | [20] 37.8 µM | [21] > 100 µM | [22] 36.6 µM | [23] 85.9 µM | [25] 50.9 µM | [26] 35 µM | [27] 69.7 µM | [28] 33.3 µM | [29] 60.8 µM | [30] 67.1 µM | [31] 29.3 µM | [32] 61.1 µM | [33] 65.6 µM | [34] > 100 µM | [35] 35.6 µM | [36] 81.3 µM | [37] > 100 µM | [38] 16.9 µM | [39] 46.6 µM | [41] 45.1 µM | [42] 73.3 µM | [43] 65 µM | [44] 55.8 µM | [45] 70.5 µM | [46] 49.3 µM | [47] 24.7 µM | [48] 37.3 µM | [49] 28.1 µM | [50] 32.2 µM | [51] 61.5 µM | [52] > 100 µM | [53] 17.6 µM | [54] 65.2 µM | [55] 37.5 µM | [56] 21.9 µM | [57] > 100 µM
54.8 µM: [40]
